The values below come from PubChem BioAssay AID1745844 (Carcinogenic Potency Database (CPDB), 2022).

The source made the active and inactive calls. How the calls were made is not given here.

One may read the TD50 as the dose at which the toxic effect under study appears in half of the subjects.

The test system of the series is rodent lifetime carcinogenesis bioassay, tumor incidence TD50. Kind of series: chronic cancer bioassays in animals – CPDB, compiled studies (AID 1745844). The conditions noted are these: for carcinogen call: by gavage.

As for `Nc1cc(Cl)c(-c2cc(Cl)c(N)cc2Cl)cc1Cl`, the TD50 stood at 109 mg/kg/day (mouse, strain dd, females, in feed, site: all sites, lesion: malignant lymphoma, dosed 104 weeks, study length 104 weeks); 87.2 mg/kg/day (mouse, strain dd, females, in feed, site: any site (literature study), lesion: malignant tumor, dosed 104 weeks, study length 104 weeks); 735 mg/kg/day (rat, strain Wistar, females, in feed, site: liver, lesion: hepatoma, dosed 104 weeks, study length 104 weeks); 2310 mg/kg/day (rat, strain Wistar, females, in feed, site: urinary bladder, lesion: transitional-cell carcinoma, dosed 104 weeks, study length 104 weeks); 561 mg/kg/day (rat, strain Wistar, males, in feed, site: urinary bladder, lesion: transitional-cell carcinoma, dosed 104 weeks, study length 104 weeks).

Regarding `N=C1C=CC(=C(c2ccc(N)cc2)c2ccc(N)cc2)C=C1`, the carcinogen call was “negative (inactive)” (hamster, strain Syrian Golden, females, site: any site (literature study), lesion: several types, types named in the paper, dosed 84 weeks, study length 84 weeks); “negative (inactive)” (hamster, strain Syrian Golden, males, site: any site (literature study), lesion: several types, types named in the paper, dosed 84 weeks, study length 84 weeks); “negative (inactive)” (rat, strain Sprague-Dawley, females, site: any site (literature study), lesion: several types, types named in the paper, dosed 127 weeks, study length 127 weeks); “negative (inactive)” (rat, strain Sprague-Dawley, males, site: any site (literature study), lesion: several types, types named in the paper, dosed 124 weeks, study length 124 weeks). Further, the TD50 (mouse, strain B6C3F1, females, in feed, site: Harderian gland, lesion: adenoma, NOS + carcinoma, NOS + cystadenoma, NOS, dosed 103 weeks, study length 105 weeks) stood at 388 mg/kg/day; the TD50 (mouse, strain B6C3F1, females, in feed, site: Harderian gland, lesion: adenoma, NOS + cystadenoma, NOS, dosed 103 weeks, study length 105 weeks) turned out to be 316 mg/kg/day; the TD50 (mouse, strain B6C3F1, females, in feed, site: Harderian gland, lesion: adenoma, dosed 103 weeks, study length 105 weeks) was 548 mg/kg/day; the TD50 (mouse, strain B6C3F1, females, in feed, site: adrenal gland + liver, lesion: pheochromocytoma + pheochromocytoma, malignant + hepatocellular carcinoma, dosed 103 weeks, study length 105 weeks) came out at 28.8 mg/kg/day; the TD50 (mouse, strain B6C3F1, females, in feed, site: adrenal gland, lesion: pheochromocytoma + pheochromocytoma, malignant, dosed 103 weeks, study length 105 weeks) is 90.6 mg/kg/day; the TD50 (mouse, strain B6C3F1, females, in feed, site: all sites, lesion: malignant lymphoma, histiocytic type + malignant lymphoma, mixed type + malignant lymphoma, lymphocytic type + malignant lymph, dosed 103 weeks, study length 105 weeks) was 62.2 mg/kg/day. Besides, the TD50 by setting is: (mouse, strain B6C3F1, females, in feed, site: all sites, lesion: malignant lymphoma, histiocytic type, dosed 103 weeks, study length 105 weeks) 380 mg/kg/day; (mouse, strain B6C3F1, females, in feed, site: all sites, lesion: malignant lymphoma, lymphocytic type, dosed 103 weeks, study length 105 weeks) 151 mg/kg/day; (mouse, strain B6C3F1, females, in feed, site: any site (literature study), lesion: several types, types named in the paper, dosed 103 weeks, study length 105 weeks) 23.4 mg/kg/day; (mouse, strain B6C3F1, females, in feed, site: liver, lesion: hepatocellular adenoma + hepatocellular carcinoma + neoplastic nodule, dosed 103 weeks, study length 105 weeks) 20.3 mg/kg/day; (mouse, strain B6C3F1, females, in feed, site: liver, lesion: hepatocellular adenoma + hepatocellular carcinoma, dosed 103 weeks, study length 105 weeks) 20.3 mg/kg/day; (mouse, strain B6C3F1, females, in feed, site: liver, lesion: hepatocellular adenoma, dosed 103 weeks, study length 105 weeks) 35.9 mg/kg/day. Moreover, the TD50 by setting is: (mouse, strain B6C3F1, females, in feed, site: liver, lesion: hepatocellular carcinoma, dosed 103 weeks, study length 105 weeks) 32.3 mg/kg/day; (mouse, strain B6C3F1, females, in feed, site: lung, lesion: alveolar/bronchiolar adenoma + alveolar/bronchiolar carcinoma, dosed 103 weeks, study length 105 weeks) 302 mg/kg/day; (mouse, strain B6C3F1, females, in feed, site: lung, lesion: alveolar/bronchiolar adenoma, dosed 103 weeks, study length 105 weeks) 326 mg/kg/day; (mouse, strain B6C3F1, males, in feed, site: all sites, lesion: malignant lymphoma, mixed type, dosed 103 weeks, study length 104 weeks) 610 mg/kg/day; (mouse, strain B6C3F1, males, in feed, site: any site (literature study), lesion: several types, types named in the paper, dosed 103 weeks, study length 104 weeks) 222 mg/kg/day; (mouse, strain B6C3F1, males, in feed, site: liver, lesion: hepatocellular adenoma + hepatocellular carcinoma + neoplastic nodule, dosed 103 weeks, study length 104 weeks) 116 mg/kg/day. For the same molecule, the TD50 reads like this: (mouse, strain B6C3F1, males, in feed, site: liver, lesion: hepatocellular adenoma + hepatocellular carcinoma, dosed 103 weeks, study length 104 weeks) 116 mg/kg/day; (mouse, strain B6C3F1, males, in feed, site: liver, lesion: hepatocellular carcinoma, dosed 103 weeks, study length 104 weeks) 127 mg/kg/day; (rat, strain Fischer 344, females, in feed, site: Zymbal's gland, lesion: carcinoma, NOS, dosed 103 weeks, study length 104 weeks) 190 mg/kg/day; (rat, strain Fischer 344, females, in feed, site: any site (literature study), lesion: several types, types named in the paper, dosed 103 weeks, study length 104 weeks) 17.8 mg/kg/day; (rat, strain Fischer 344, females, in feed, site: liver, lesion: hepatocellular adenoma + hepatocellular carcinoma + neoplastic nodule, dosed 103 weeks, study length 104 weeks) 189 mg/kg/day; (rat, strain Fischer 344, females, in feed, site: liver, lesion: hepatocellular carcinoma + neoplastic nodule, dosed 103 weeks, study length 104 weeks) 189 mg/kg/day. In addition, the TD50 (rat, strain Fischer 344, females, in feed, site: mammary gland, lesion: adenocarcinoma, NOS + adenoma, NOS + fibroadenoma, dosed 103 weeks, study length 104 weeks) amounted to 25.4 mg/kg/day; the TD50 (rat, strain Fischer 344, females, in feed, site: mammary gland, lesion: adenocarcinoma, NOS + adenoma, NOS, dosed 103 weeks, study length 104 weeks) is 156 mg/kg/day; the TD50 (rat, strain Fischer 344, females, in feed, site: mammary gland, lesion: adenocarcinoma, NOS, dosed 103 weeks, study length 104 weeks) came out at 232 mg/kg/day; the TD50 (rat, strain Fischer 344, females, in feed, site: mammary gland, lesion: fibroadenoma, dosed 103 weeks, study length 104 weeks) is 27.9 mg/kg/day; the TD50 (rat, strain Fischer 344, females, in feed, site: subcutaneous tissue + thyroid gland + Zymbal's gland, lesion: fibroma + follicular-cell adenoma + follicular-cell carcinoma + carcinoma, NOS, dosed 103 weeks, study length 104 weeks) was found to be 32.2 mg/kg/day; the TD50 (rat, strain Fischer 344, females, in feed, site: subcutaneous tissue, lesion: fibroma, dosed 103 weeks, study length 104 weeks) is 44.5 mg/kg/day. Besides, the TD50 was 40.9 mg/kg/day (rat, strain Fischer 344, females, in feed, site: subcutaneous tissue, lesion: fibrosarcoma + fibroma + sarcoma, NOS, dosed 103 weeks, study length 104 weeks); 42.8 mg/kg/day (rat, strain Fischer 344, females, in feed, site: subcutaneous tissue, lesion: fibrosarcoma + fibroma, dosed 103 weeks, study length 104 weeks); 154 mg/kg/day (rat, strain Fischer 344, females, in feed, site: thyroid gland, lesion: follicular-cell adenoma + follicular-cell carcinoma, dosed 103 weeks, study length 104 weeks); 318 mg/kg/day (rat, strain Fischer 344, females, in feed, site: thyroid gland, lesion: follicular-cell adenoma, dosed 103 weeks, study length 104 weeks); 133 mg/kg/day (rat, strain Fischer 344, females, in feed, site: uterus, lesion: endometrial stromal sarcoma, dosed 103 weeks, study length 104 weeks); 124 mg/kg/day (rat, strain Fischer 344, males, in feed, site: Zymbal's gland, lesion: carcinoma, NOS, dosed 103 weeks, study length 104 weeks). Further, the TD50 is, setting by setting: (rat, strain Fischer 344, males, in feed, site: any site (literature study), lesion: several types, types named in the paper, dosed 103 weeks, study length 104 weeks) 15.7 mg/kg/day; (rat, strain Fischer 344, males, in feed, site: body cavities + multiple sites + multiple organs + tunica vaginalis, lesion: mesothelioma, NOS + mesothelioma, malignant, dosed 103 weeks, study length 104 weeks) 184 mg/kg/day; (rat, strain Fischer 344, males, in feed, site: liver + skin + subcutaneous tissue + thyroid gland + Zymbal's gland, lesion: hepatocellular carcinoma + sebaceous adenoma + squamous-cell carcinoma + trichoepithelioma + fibroma + follicular-cell adenoma + fol, dosed 103 weeks, study length 104 weeks) 21.2 mg/kg/day; (rat, strain Fischer 344, males, in feed, site: liver, lesion: bile duct adenoma + bile duct carcinoma, dosed 103 weeks, study length 104 weeks) 557 mg/kg/day; (rat, strain Fischer 344, males, in feed, site: liver, lesion: hepatocellular adenoma + hepatocellular carcinoma + neoplastic nodule, dosed 103 weeks, study length 104 weeks) 41.5 mg/kg/day; (rat, strain Fischer 344, males, in feed, site: liver, lesion: hepatocellular carcinoma + neoplastic nodule, dosed 103 weeks, study length 104 weeks) 41.5 mg/kg/day. The TD50 is, setting by setting: (rat, strain Fischer 344, males, in feed, site: liver, lesion: hepatocellular carcinoma, dosed 103 weeks, study length 104 weeks) 140 mg/kg/day; (rat, strain Fischer 344, males, in feed, site: liver, lesion: neoplastic nodule, dosed 103 weeks, study length 104 weeks) 62.2 mg/kg/day; (rat, strain Fischer 344, males, in feed, site: lung, lesion: alveolar/bronchiolar adenoma + alveolar/bronchiolar carcinoma, dosed 103 weeks, study length 104 weeks) 254 mg/kg/day; (rat, strain Fischer 344, males, in feed, site: lung, lesion: alveolar/bronchiolar adenoma, dosed 103 weeks, study length 104 weeks) 281 mg/kg/day; (rat, strain Fischer 344, males, in feed, site: pancreatic islets, lesion: islet-cell adenoma + islet-cell carcinoma, dosed 103 weeks, study length 104 weeks) 152 mg/kg/day; (rat, strain Fischer 344, males, in feed, site: pancreatic islets, lesion: islet-cell carcinoma, dosed 103 weeks, study length 104 weeks) 252 mg/kg/day. Further, the TD50 runs as follows: (rat, strain Fischer 344, males, in feed, site: skin, lesion: basal-cell carcinoma, dosed 103 weeks, study length 104 weeks) 385 mg/kg/day; (rat, strain Fischer 344, males, in feed, site: skin, lesion: sebaceous adenoma, dosed 103 weeks, study length 104 weeks) 424 mg/kg/day; (rat, strain Fischer 344, males, in feed, site: skin, lesion: squamous-cell carcinoma + squamous-cell papilloma, dosed 103 weeks, study length 104 weeks) 93.8 mg/kg/day; (rat, strain Fischer 344, males, in feed, site: skin, lesion: squamous-cell carcinoma, dosed 103 weeks, study length 104 weeks) 130 mg/kg/day; (rat, strain Fischer 344, males, in feed, site: skin, lesion: trichoepithelioma, dosed 103 weeks, study length 104 weeks) 221 mg/kg/day; (rat, strain Fischer 344, males, in feed, site: subcutaneous tissue, lesion: fibroma, dosed 103 weeks, study length 104 weeks) 35.3 mg/kg/day. Also, the TD50 reads like this: (rat, strain Fischer 344, males, in feed, site: subcutaneous tissue, lesion: fibrosarcoma + fibroma + sarcoma, NOS, dosed 103 weeks, study length 104 weeks) 33.4 mg/kg/day; (rat, strain Fischer 344, males, in feed, site: subcutaneous tissue, lesion: fibrosarcoma + fibroma, dosed 103 weeks, study length 104 weeks) 33 mg/kg/day; (rat, strain Fischer 344, males, in feed, site: testis, lesion: interstitial-cell tumor, dosed 103 weeks, study length 104 weeks) 15.6 mg/kg/day; (rat, strain Fischer 344, males, in feed, site: thyroid gland, lesion: follicular-cell adenoma + follicular-cell carcinoma, dosed 103 weeks, study length 104 weeks) 57 mg/kg/day; (rat, strain Fischer 344, males, in feed, site: thyroid gland, lesion: follicular-cell adenoma, dosed 103 weeks, study length 104 weeks) 176 mg/kg/day; (rat, strain Fischer 344, males, in feed, site: thyroid gland, lesion: follicular-cell carcinoma, dosed 103 weeks, study length 104 weeks) 73.9 mg/kg/day.

On to `C/C=C1/C[C@@H](C)[C@](O)(CO)C(=O)OCC2=CC[N+]3([O-])CC[C@@H](OC1=O)[C@@H]23` (stereo partly specified), for which the TD50 was 1.27 mg/kg/day (rat, strain Wistar, females, in drinking water, site: liver, lesion: hepatoma, dosed 103 weeks, study length 104 weeks) and 0.499 mg/kg/day (rat, strain Wistar, males, in drinking water, site: liver, lesion: hepatoma, dosed 103 weeks, study length 104 weeks).
